Experiment: gradient 5% acetonitrile 3 min, to 50% in 2 min, to 85% in 15 min, held 3 min, 100 µL/min
Details: column: Zorbax Extend-C18 2.1 x 50 mm; eluents: water / acetonitrile, 0.1% formic acid
In short: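 Data were gathered over 3 months by HPLC coupled to a quadrupole time-of-flight mass spectrometer, operated in positive and negative ionization mode. Mixtures of ~100 pure standards ran on a Zorbax Extend-C18 column (2.1 × 50 mm, 1.8 μm) at 100 μL/min, with water and acetonitrile each containing 0.1% formic acid and dead and dwell volumes of 40 μL and 900 μL. Retention time was read from adduct peaks picked by computer and checked manually.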

RP-LC retention time | SMILES
551 s | O=C(C1CC(=O)N(c2n[nH]c3ccccc23)C1)N1CCN(CCc2ccccn2)CC1 (configuration not stated)
616 s | O=C(NC1CCCC1)C1CCCN(C(=O)c2cc(-c3ccccn3)n[nH]2)C1 (configuration not stated)
591 s | COc1ccc(-c2noc(N3CCC(C(=O)NCCN4CCOCC4)CC3)n2)cc1OC
735 s | O=C(CN1CCN(C(=O)Nc2ccc(Br)cc2)CC1=O)NC1CCCCC1
675 s | Cc1oc(C2CCN(C(=O)Nc3ccc4c(c3)OCCO4)CC2)nc1C(=O)N(C)C
684 s | CCNC(=O)C1CCCN(S(=O)(=O)c2ccc(OC)c(OC)c2)C1 (configuration not stated)
836 s | Cc1cc(C(=O)N2CC(c3nc(Cc4ccccc4)no3)C2)c(C)o1
845 s | Cc1[nH]c(-c2ccccc2)cc1C(=O)NC1CCCC1
900 s | CCN1C(=O)c2ccccc2Oc2ccc(C(=O)N3CCCCCC3)cc21
1110 s | O=C(Cn1nc2c3cc(-c4ccc(Cl)cc4)nn3ccn2c1=O)NC1CCCC1
846 s | CC1=C(c2ccc(C)cc2)S(=O)(=O)N=C1N1CCCN(C(=O)Nc2ccccc2)CC1
984 s | Cc1ccc(N2CC(C(=O)N3CCCC3c3nc(-c4cccc(C)c4)no3)CC2=O)cc1 (configuration not stated)
589 s | NC(=O)c1nsc2c(=O)n(CC(=O)NCc3ccco3)cnc12
567 s | Cc1[nH]c2ccccc2c1C(=O)CSc1n[nH]c(N)n1
571 s | COC(=O)C1=C(CN2CCOCC2)NC(=O)NC1c1ccc(OC)c(OC)c1 (configuration not stated)
1280 s | COc1ccccc1NC(=O)Cn1c(=O)cc(-c2nc(C3CC3)no2)c2ccccc21
688 s | CCCNC(=O)C1CCCN(c2ccc(SCC(=O)Nc3ccc(OC)c(Cl)c3)nn2)C1 (configuration not stated)
681 s | CS(=O)(=O)N1CCn2nc(-c3cccs3)cc21

RP-LC retention time | SMILES
998 s | Cc1ccc2c(c1)N(S(C)(=O)=O)CCC(C(=O)Nc1ccc(F)c(Cl)c1)O2 (configuration not stated)
733 s | Cc1nn(-c2ccc(-c3ccccc3)nn2)c(C)c1S(=O)(=O)N1CCN(C2CCCCC2)CC1
620 s | CCN1CCCC1CNS(=O)(=O)c1ccc2c(c1)CCN2C(=O)CCC(=O)N1CCCCC1 (configuration not stated)
704 s | Cc1nc(-c2cnccn2)n(CC(=O)Nc2ccccc2)c(=O)c1C
606 s | NC(=O)C1CCN(C(=O)CSc2nnc(-c3sc4ncccc4c3N)n2C2CC2)CC1
759 s | CNC(=O)[C@H]1C[C@H](Oc2ccccc2)CN1C(=O)CCc1nc2ccccc2s1
620 s | Cc1[nH]c(=O)[nH]c(=O)c1S(=O)(=O)NC1CCCC1
935 s | COc1cccc(Cn2cccc(S(=O)(=O)N3CCCCCC3)c2=O)c1
607 s | O=C(NCCc1ccccc1)N1CCN(c2cc(-c3ccncc3)[nH]n2)CC1
893 s | O=C(c1sc2cccc(F)c2c1Cl)N1CCN(c2ncccn2)CC1
676 s | CCCc1ccc(S(=O)(=O)Nc2ccc(N3CCCN(C)CC3)cc2C(=O)O)cc1
875 s | O=C(Cc1ccccc1)NCC(=O)NC(C(=O)N1CCCc2ccccc21)c1ccccc1 (configuration not stated)
813 s | CC(CC(=O)NCCC1=CCCCC1)Cc1nnc2c(=O)n(-c3cccc(F)c3)ccn12 (configuration not stated)
749 s | CCn1c(=O)sc2cc(S(=O)(=O)N3CCC(C(=O)NC(C)C)CC3)ccc21
868 s | O=C(NC1CC1)c1ccc(OCC2CCN(C(=O)Cc3ccccc3Cl)CC2)cc1
807 s | Cc1nn(CC(=O)NC2CCCCCC2)c(=O)c2c(C)n(-c3ccccc3)nc12
746 s | CC1=C(c2ccc(F)cc2)S(=O)(=O)N=C1N1CCCN(C(=O)NC(C)C)CC1

The next lines start with the compound.

SMILES | RP-LC retention time
O=S(=O)(Nc1cccc(C(F)(F)F)c1)c1ccc2c(c1)-c1oncc1CO2 | 998 s
COC(=O)c1cccc(C(=O)Nc2ccc(F)cc2C)n1 | 853 s
Cc1cc(OCC(=O)NCCN(C)C)cc(C)c1Cl | 629 s
CCc1cc(=O)n(Cc2ncc(C)c(OC)c2C)c(N2CCOCC2)n1 | 620 s
Cc1oc(-c2[nH]ncc2C(=O)N(C)C)cc1S(=O)(=O)Nc1ccccc1F | 658 s
CSc1ccc(-c2nc3cnccn3c2Nc2ccc3c(c2)OCO3)cc1 | 890 s
CCn1cc(-c2nc(C(=O)Nc3cc(F)ccc3F)cs2)c2cccnc21 | 1220 s
CCCN(C(=O)Cc1c(C(=O)O)c(C)cn1CC)c1cccc(Cl)c1 | 767 s
COc1ccc(CNC(=O)Nc2ccccc2NC(=O)c2cccc(Cl)c2)cc1OC | 808 s
Cc1cccc(NC(=O)Nc2ccc3nncn3c2)c1 | 690 s
Cc1noc(-c2ccnc(-n3cnc(C(=O)NCC(C)C)c3)c2)n1 | 773 s
CCCNc1nnc(-c2nc(C3CC3)no2)c2ccccc12 | 660 s
O=C(Cn1cc(S(=O)(=O)c2ccccc2)c2ccccc21)NCc1ccc2c(c1)OCO2 | 829 s
O=c1[nH]c2ccc(NCc3ccc(-c4ccccc4Cl)o3)cc2[nH]1 | 717 s
COCCCNC(=O)c1ccc2nc(CCc3ccc(NC(C)=O)cc3)[nH]c2c1 | 567 s
CCOC(=O)N1CCC2(CC1)OC(=O)C(C)=C2C(=O)Nc1cc(OC)cc(OC)c1 | 864 s

SMILES | RP-LC retention time
COCCN1C(=O)CCc2cc(NS(=O)(=O)c3ccc4c(c3)CCC4)ccc21 | 854 s
COc1ccc(N2CC(c3noc(-c4ccccc4F)n3)CC2=O)cc1OC (configuration not stated) | 818 s
CCN1CCCn2cc(S(=O)(=O)Nc3ccc(F)c(F)c3)cc2C1=O | 768 s
Cc1ccccc1NC(=O)c1cc(C)n2nc(-c3ccsc3)cc2n1 | 1240 s
CC(C)CCNC(=O)C1(C)Cn2nc(C(=O)NCc3ccccc3Br)cc2C(=O)N1C (configuration not stated) | 838 s
CCOC(=O)c1cnc2nc(C)ccc2c1Nc1cccc(F)c1 | 689 s
O=C(Nc1cnc(-c2ccc(Cl)cc2)nc1)c1ccc(Br)o1 | 1120 s
O=C(c1cccs1)N1CCc2c([nH]c3ccccc23)C1c1ccc(Cl)cc1 (configuration not stated) | 1220 s
CN(C)C(CNC(=O)C1(c2cccs2)CCCC1)c1ccsc1 (configuration not stated) | 596 s
COc1ccc(-c2nc(C3CC(=O)N(Cc4ccccc4)C3)no2)cc1 (configuration not stated) | 946 s
Cc1ccc2[nH]cc(CCN3CC(C(=O)Nc4cccc(C)c4C)CC3=O)c2c1 (configuration not stated) | 820 s
COc1ccc(-c2noc(-c3cccnc3N3CCN(c4ccccc4F)CC3)n2)cc1 | 1370 s
CCc1nnc2ccc(-c3noc(-c4cccc(Cl)c4)n3)cn12 | 1070 s
CSc1ccc(-c2nc3cccc(C)n3c2Nc2ccc(C)cc2)cc1 | 824 s
CCn1cc(S(=O)(=O)CC(=O)Nc2ccc3c(c2)OCO3)c2ccccc21 | 754 s
O=C(Cn1ccn2nc(-c3ccc(F)cc3)c(CO)c2c1=O)Nc1ccc(F)cc1F | 821 s

Source: the METLIN SMRT retention time set (Domingo-Almenara et al. 2019)
